Source: article PMC5218480 (PLoS ONE, 2017)

System: MV-4-11 cells
Test: Gene expression microarray analysis (Affymetrix PrimeView) and GSEA
Type: cell-based, human
Design: RFU PODN (11730768_x_at) / Fold change /veh PODN (11730768_x_at) / RFU LINC00158 (11744669_a_at) / Fold change /veh LINC00158 (11744669_a_at) / RFU DUSP10 (11751237_a_at) / Fold change /veh DUSP10 (11751237_a_at) / RFU ID3 (11757404_x_at) / Fold change /veh ID3 (11757404_x_at) / RFU PLEKHG5 (11737974_s_at) / Fold change /veh PLEKHG5 (11737974_s_at) / RFU LRRC4B (11730491_at) / Fold change /veh LRRC4B (11730491_at) / RFU GIMAP4 (11747438_a_at) / Fold change /veh GIMAP4 (11747438_a_at) / RFU KRT8 (11758183_x_at) / Fold change /veh KRT8 (11758183_x_at) / RFU CNN1 (11734310_a_at) / Fold change /veh CNN1 (11734310_a_at) / RFU VPS37D (11726825_at) / Fold change /veh VPS37D (11726825_at) / RFU C10orf10 (11716522_x_at) / Fold change /veh C10orf10 (11716522_x_at) / RFU KIR2DL2 /// KIR2DL4 /// KIR2DL5A /// KIR2DL5B /// KIR2DS1 /// KIR2DS2 /// KIR2DS3 /// KIR2DS4 /// KIR3DL3 /// KIR3DL3 /// KIR3DS1 (11738374_at) / Fold change /veh KIR2DL2 /// KIR2DL4 /// KIR2DL5A /// KIR2DL5B /// KIR2DS1 /// KIR2DS2 /// KIR2DS3 /// KIR2DS4 /// KIR3DL3 /// KIR3DL3 /// KIR3DS1 (11738374_at) / RFU C1QL1 (11718748_at) / Fold change /veh C1QL1 (11718748_at) / RFU TMPRSS4 (11747572_a_at) / Fold change /veh TMPRSS4 (11747572_a_at) / RFU HAMP (11756126_x_at) / Fold change /veh HAMP (11756126_x_at) / RFU RNFT2 (11725882_a_at) / Fold change /veh RNFT2 (11725882_a_at) / RFU NR4A2 (11747474_a_at) / Fold change /veh NR4A2 (11747474_a_at) / RFU ABCC12 (11746883_a_at) / Fold change /veh ABCC12 (11746883_a_at) / RFU TMEM136 (11760407_x_at) / Fold change /veh TMEM136 (11760407_x_at) / RFU CLDN22 /// WWC2 (11732394_at) / Fold change /veh CLDN22 /// WWC2 (11732394_at) / RFU HLA-DPB1 (11760878_x_at) / Fold change /veh HLA-DPB1 (11760878_x_at) / RFU SPINT1 (11716480_a_at) / Fold change /veh SPINT1 (11716480_a_at) / RFU GAP43 (11754022_s_at) / Fold change /veh GAP43 (11754022_s_at) / RFU A4GNT (11735810_at) / Fold change /veh A4GNT (11735810_at) / RFU PRB3 (11715151_x_at) / Fold change /veh PRB3 (11715151_x_at) / RFU TUBB4B (11761932_at) / Fold change /veh TUBB4B (11761932_at) / RFU CAPN14 (11732068_a_at) / Fold change /veh CAPN14 (11732068_a_at) / RFU TMCC2 (11721928_a_at) / Fold change /veh TMCC2 (11721928_a_at) / RFU IRGQ (11745062_a_at) / Fold change /veh IRGQ (11745062_a_at) / RFU FAM174B (11720279_a_at) / Fold change /veh FAM174B (11720279_a_at) / RFU TMPRSS4 (11748680_a_at) / Fold change /veh TMPRSS4 (11748680_a_at) / RFU FAM212B (11763350_a_at) / Fold change /veh FAM212B (11763350_a_at) / RFU PLEKHG5 (11743358_a_at) / Fold change /veh PLEKHG5 (11743358_a_at) / RFU ZSCAN30 (11745921_a_at) / Fold change /veh ZSCAN30 (11745921_a_at) / RFU CMKLR1 (11741424_a_at) / Fold change /veh CMKLR1 (11741424_a_at) / RFU LOC101060620 /// MAPK8IP1 (11723275_at) / Fold change /veh LOC101060620 /// MAPK8IP1 (11723275_at) / RFU SPTSSB (11747773_x_at) / Fold change /veh SPTSSB (11747773_x_at) / RFU PRSS12 (11739890_at) / Fold change /veh PRSS12 (11739890_at) / RFU BIN1 (11741810_x_at) / Fold change /veh BIN1 (11741810_x_at) / RFU WNT11 (11732464_a_at) / Fold change /veh WNT11 (11732464_a_at) / RFU C10orf10 (11716521_a_at) / Fold change /veh C10orf10 (11716521_a_at) / RFU C5orf56 (11738089_at) / Fold change /veh C5orf56 (11738089_at) / RFU CYB561 (11721691_x_at) / Fold change /veh CYB561 (11721691_x_at) / RFU ANKRD19P (11752326_a_at) / Fold change /veh ANKRD19P (11752326_a_at) / RFU OR2T12 /// OR2T33 /// OR2T8 (11738714_s_at) / Fold change /veh OR2T12 /// OR2T33 /// OR2T8 (11738714_s_at) / RFU VCAN (11748164_a_at) / Fold change /veh VCAN (11748164_a_at) / RFU JSRP1 (11732532_at) / Fold change /veh JSRP1 (11732532_at) / RFU KRTAP10-11 (11738290_x_at) / Fold change /veh KRTAP10-11 (11738290_x_at) / RFU MYO3A (11730013_a_at) / Fold change /veh MYO3A (11730013_a_at) / RFU EBF3 (11725865_a_at) / Fold change /veh EBF3 (11725865_a_at) / RFU CAMK2N1 (11719241_x_at) / Fold change /veh CAMK2N1 (11719241_x_at) / RFU C5orf56 (11738088_a_at) / Fold change /veh C5orf56 (11738088_a_at) / RFU OLFML3 (11715873_a_at) / Fold change /veh OLFML3 (11715873_a_at) / RFU LOC100653217 /// NTM (11731650_a_at) / Fold change /veh LOC100653217 /// NTM (11731650_a_at) / RFU MAPK11 (11762145_a_at) / Fold change /veh MAPK11 (11762145_a_at) / RFU FIZ1 (11724087_x_at) / Fold change /veh FIZ1 (11724087_x_at) / RFU OASL (11726364_x_at) / Fold change /veh OASL (11726364_x_at) / RFU SOX15 (11748057_x_at) / Fold change /veh SOX15 (11748057_x_at) / RFU CD79A (11719716_a_at) / Fold change /veh CD79A (11719716_a_at) / RFU HIST1H1D (11736915_at) / Fold change /veh HIST1H1D (11736915_at) / RFU CASKIN2 (11723855_a_at) / Fold change /veh CASKIN2 (11723855_a_at) / RFU LOC730098 (11760151_x_at) / Fold change /veh LOC730098 (11760151_x_at) / RFU OR4N2 (11742367_at) / Fold change /veh OR4N2 (11742367_at) / RFU PRRT2 (11749266_a_at) / Fold change /veh PRRT2 (11749266_a_at) / RFU SNX32 (11753110_a_at) / Fold change /veh SNX32 (11753110_a_at) / RFU CDHR5 (11726645_a_at) / Fold change /veh CDHR5 (11726645_a_at) / RFU RCAN1 (11760418_a_at) / Fold change /veh RCAN1 (11760418_a_at) / RFU FAM167A (11723789_a_at) / Fold change /veh FAM167A (11723789_a_at) / RFU FAM26E (11764081_at) / Fold change /veh FAM26E (11764081_at) / RFU ISYNA1 (11749810_s_at) / Fold change /veh ISYNA1 (11749810_s_at) / RFU ACY1 (11761880_at) / Fold change /veh ACY1 (11761880_at) / RFU 11764098_at / Fold change /veh 11764098_at / RFU SAMD14 (11745864_x_at) / Fold change /veh SAMD14 (11745864_x_at) / RFU NPB (11741838_a_at) / Fold change /veh NPB (11741838_a_at) / RFU TMPRSS6 (11731388_a_at) / Fold change /veh TMPRSS6 (11731388_a_at) / RFU KRTAP10-2 (11738614_at) / Fold change /veh KRTAP10-2 (11738614_at) / RFU ARHGAP8 /// PRR5-ARHGAP8 (11727945_x_at) / Fold change /veh ARHGAP8 /// PRR5-ARHGAP8 (11727945_x_at) / RFU KRTAP5-7 /// NADSYN1 (11734609_at) / Fold change /veh KRTAP5-7 /// NADSYN1 (11734609_at) / RFU RASL12 (11751679_a_at) / Fold change /veh RASL12 (11751679_a_at) / RFU CDKN2B (11736163_a_at) / Fold change /veh CDKN2B (11736163_a_at) / RFU PRF1 (11729649_at) / Fold change /veh PRF1 (11729649_at) / RFU, ZNF638 /// ZNF638-IT1 / Fold change vs veh, ZNF638 /// ZNF638-IT1 / RFU, PANK3 / Fold change vs veh, PANK3 / RFU, SH3YL1 / Fold change vs veh, SH3YL1 / RFU, ZEB2 / Fold change vs veh, ZEB2 / RFU, NRIP1 / Fold change vs veh, NRIP1 / RFU, PTTG1IP / Fold change vs veh, PTTG1IP / RFU, CAPN2 / Fold change vs veh, CAPN2 / RFU, MED14 / Fold change vs veh, MED14 / RFU, SNORA58 / Fold change vs veh, SNORA58 / RFU, C1orf63 / Fold change vs veh, C1orf63 / RFU, LRRFIP1 / Fold change vs veh, LRRFIP1 / RFU, NDUFAF7 / Fold change vs veh, NDUFAF7 / RFU, SLC12A2 / Fold change vs veh, SLC12A2 / RFU, IBTK / Fold change vs veh, IBTK / RFU, ESF1 / Fold change vs veh, ESF1 / Fold change vs veh, TMEM50B / RFU, TAOK1 / Fold change vs veh, TAOK1 / RFU, ACBD3 / Fold change vs veh, ACBD3 / RFU, TMA16 / Fold change vs veh, TMA16 / RFU, RWDD3 / Fold change vs veh, RWDD3 / RFU, BCAT1 / Fold change vs veh, BCAT1 / RFU, EDEM3 / Fold change vs veh, EDEM3 / RFU, TMEM33 / Fold change vs veh, TMEM33 / RFU, WDR75 / Fold change vs veh, WDR75 / RFU, AHCTF1 / Fold change vs veh, AHCTF1 / RFU, TFRC / Fold change vs veh, TFRC / RFU, ZDHHC17 / Fold change vs veh, ZDHHC17 / RFU, NOM1 / Fold change vs veh, NOM1 / RFU, ARL8B / Fold change vs veh, ARL8B / RFU, ZBTB11 / Fold change vs veh, ZBTB11 / RFU, TAMM41 / Fold change vs veh, TAMM41 / RFU, KIAA1704 /// LOC100996395 / Fold change vs veh, KIAA1704 /// LOC100996395 / RFU, ING1 / Fold change vs veh, ING1 / RFU, TRMT61B / Fold change vs veh, TRMT61B / RFU, FUBP3 / Fold change vs veh, FUBP3 / RFU, TP53 / Fold change vs veh, TP53 / RFU, TNKS2 / Fold change vs veh, TNKS2 / RFU, ZFP14 / Fold change vs veh, ZFP14 / RFU, ACTR2 / Fold change vs veh, ACTR2 / RFU, PPP3R1 / Fold change vs veh, PPP3R1 / RFU, PIK3R1 / Fold change vs veh, PIK3R1 / RFU, HNRNPA1 / Fold change vs veh, HNRNPA1 / RFU, RNF170 / Fold change vs veh, RNF170 / RFU, ZNF28 / Fold change vs veh, ZNF28 / RFU, RNGTT / Fold change vs veh, RNGTT / RFU, OGT / Fold change vs veh, OGT / RFU, BRD1 / Fold change vs veh, BRD1 / RFU, MARS / Fold change vs veh, MARS / RFU, ZNF655 / Fold change vs veh, ZNF655 / RFU, FAHD1 / Fold change vs veh, FAHD1 / RFU, BDP1 / Fold change vs veh, BDP1 / RFU, LRRCC1 / Fold change vs veh, LRRCC1 / RFU, ARID1A / Fold change vs veh, ARID1A / RFU, ZNF146 / Fold change vs veh, ZNF146 / RFU, ZNF330 / Fold change vs veh, ZNF330 / RFU, GPN3 / Fold change vs veh, GPN3 / RFU, C9orf123 / Fold change vs veh, C9orf123 / RFU, N4BP2L2 / Fold change vs veh, N4BP2L2 / RFU, ARFIP1 / Fold change vs veh, ARFIP1 / RFU, FAM179B / Fold change vs veh, FAM179B / RFU, BCL10 / Fold change vs veh, BCL10 / RFU, UHRF1BP1L / Fold change vs veh, UHRF1BP1L / RFU, BET1 / Fold change vs veh, BET1 / RFU, CNOT2 / Fold change vs veh, CNOT2 / RFU, ZNF268 / Fold change vs veh, ZNF268 / Fold change vs veh, ZNF507 / RFU, DGCR2 / Fold change vs veh, DGCR2 / RFU, WDSUB1 / Fold change vs veh, WDSUB1 / Fold change vs veh, HSP90B1 /// MIR3652 / RFU, ADSS / Fold change vs veh, ADSS / RFU, GK / Fold change vs veh, GK / RFU, ZNF148 / Fold change vs veh, ZNF148 / RFU, TAF9 / Fold change vs veh, TAF9 / RFU, SLC1A5 / Fold change vs veh, SLC1A5 / RFU, SLMO2 / Fold change vs veh, SLMO2 / RFU, ABCC4 / Fold change vs veh, ABCC4 / RFU, LOC101060439 /// RAP1B / Fold change vs veh, LOC101060439 /// RAP1B / RFU, RFX7 / Fold change vs veh, RFX7 / RFU, GTPBP10 / Fold change vs veh, GTPBP10 / RFU, CNEP1R1 / Fold change vs veh, CNEP1R1 / RFU, BIVM-ERCC5 /// ERCC5 / Fold change vs veh, BIVM-ERCC5 /// ERCC5 / RFU, ILF3 / Fold change vs veh, ILF3 / RFU 11762660_at / Fold change /veh 11762660_at / RFU VCAN (11757783_s_at) / Fold change /veh VCAN (11757783_s_at) / RFU DDX43 (11728927_at) / Fold change /veh DDX43 (11728927_at) / RFU KRT8 (11758188_x_at) / Fold change /veh KRT8 (11758188_x_at) / RFU NKD1 (11759106_at) / Fold change /veh NKD1 (11759106_at) / RFU SRD5A1 (11742802_a_at) / Fold change /veh SRD5A1 (11742802_a_at) / RFU TPSAB1 /// TPSB2 (11721975_s_at) / Fold change /veh TPSAB1 /// TPSB2 (11721975_s_at) / RFU GSTM3 (11746129_a_at) / Fold change /veh GSTM3 (11746129_a_at) / RFU IL23R (11737362_x_at) / Fold change /veh IL23R (11737362_x_at) / RFU TMEM51 (11727254_a_at) / Fold change /veh TMEM51 (11727254_a_at) / RFU PIWIL2 (11732686_x_at) / Fold change /veh PIWIL2 (11732686_x_at) / RFU ORM1 (11744905_x_at) / Fold change /veh ORM1 (11744905_x_at) / RFU CCDC152 (11743942_at) / Fold change /veh CCDC152 (11743942_at) / RFU ECM1 (11717891_a_at) / Fold change /veh ECM1 (11717891_a_at) / RFU IL23R (11748794_a_at) / Fold change /veh IL23R (11748794_a_at) / RFU TNFAIP8L3 (11732012_x_at) / Fold change /veh TNFAIP8L3 (11732012_x_at) / RFU MBOAT4 (11741988_at) / Fold change /veh MBOAT4 (11741988_at) / RFU 11764193_at / Fold change /veh 11764193_at / RFU TMEM53 (11763286_at) / Fold change /veh TMEM53 (11763286_at) / RFU MAGEB2 (11727129_at) / Fold change /veh MAGEB2 (11727129_at) / RFU TMEM200A (11744735_a_at) / Fold change /veh TMEM200A (11744735_a_at) / RFU CCDC152 (11751479_a_at) / Fold change /veh CCDC152 (11751479_a_at) / RFU FAM211A (11726209_a_at) / Fold change /veh FAM211A (11726209_a_at) / RFU RGS16 (11746705_a_at) / Fold change /veh RGS16 (11746705_a_at) / RFU VCAN (11755009_s_at) / Fold change /veh VCAN (11755009_s_at) / RFU RHOB (11743442_s_at) / Fold change /veh RHOB (11743442_s_at) / RFU RGS16 (11720943_a_at) / Fold change /veh RGS16 (11720943_a_at) / RFU RGS16 (11720944_at) / Fold change /veh RGS16 (11720944_at) / RFU, VPS4B / Fold change vs veh, VPS4B / RFU, CREB1 / Fold change vs veh, CREB1 / RFU, DNAJC13 / Fold change vs veh, DNAJC13 / RFU, GNAQ / Fold change vs veh, GNAQ / RFU, CDK5R1 / Fold change vs veh, CDK5R1 / RFU, ZRANB3 / Fold change vs veh, ZRANB3 / RFU, CUL4A / Fold change vs veh, CUL4A / RFU, CCNY / Fold change vs veh, CCNY / RFU, UFL1 / Fold change vs veh, UFL1 / RFU, COG3 / Fold change vs veh, COG3 / RFU, DIAPH2 / Fold change vs veh, DIAPH2 / RFU, SKA2 / Fold change vs veh, SKA2 / RFU, AFF3 / Fold change vs veh, AFF3 / RFU, LMF1 / Fold change vs veh, LMF1 / RFU, IPO11 / Fold change vs veh, IPO11 / RFU, DFFB / Fold change vs veh, DFFB / RFU, FOXP1 / Fold change vs veh, FOXP1 / RFU, CARD8 / Fold change vs veh, CARD8 / RFU, STRN3 / Fold change vs veh, STRN3 / RFU, ADK / Fold change vs veh, ADK / RFU, RASSF2 / Fold change vs veh, RASSF2 / RFU, WIPF1 / Fold change vs veh, WIPF1 / RFU, LARP1B / Fold change vs veh, LARP1B / RFU, RASA1 / Fold change vs veh, RASA1 / RFU, RB1 / Fold change vs veh, RB1 / RFU, PPFIA1 / Fold change vs veh, PPFIA1 / RFU, MAT2A / Fold change vs veh, MAT2A / RFU, CCT5 / Fold change vs veh, CCT5 / RFU, WDR92 / Fold change vs veh, WDR92 / RFU, CUX1 / Fold change vs veh, CUX1 / RFU, TTC7A / Fold change vs veh, TTC7A / RFU, TMEM135 / Fold change vs veh, TMEM135 / RFU, DEPTOR / Fold change vs veh, DEPTOR / RFU, CPM / Fold change vs veh, CPM / RFU, DNAJB6 / Fold change vs veh, DNAJB6 / RFU, CACNA2D3 / Fold change vs veh, CACNA2D3 / RFU, DTX4 / Fold change vs veh, DTX4 / RFU, TFCP2 / Fold change vs veh, TFCP2 / RFU, GMCL1 /// GMCL1P1 / Fold change vs veh, GMCL1 /// GMCL1P1 / RFU, AEBP2 / Fold change vs veh, AEBP2 / RFU, SNHG1 /// SNORD22 /// SNORD25 /// SNORD26 /// SNORD27 /// SNORD28 /// SNORD29 /// SNORD31 / Fold change vs veh, SNHG1 /// SNORD22 /// SNORD25 /// SNORD26 /// SNORD27 /// SNORD28 /// SNORD29 /// SNORD31 / Fold change (Aza/veh), C12orf56 (ProbeSet 11735607_a_at) / Fold change (ACY-1035/veh), C12orf56 (ProbeSet 11735607_a_at) / Fold change (Aza/veh), FGFR1OP (ProbeSet 11751329_s_at) / Fold change (ACY-1035/veh), FGFR1OP (ProbeSet 11751329_s_at) / Fold change (Aza/veh), VPS36 (ProbeSet 11739960_a_at) / Fold change (ACY-1035/veh), VPS36 (ProbeSet 11739960_a_at) / RFU SYPL1 (11715823_x_at) / Fold change /veh SYPL1 (11715823_x_at) / RFU IGFBP7 (11715501_s_at) / Fold change /veh IGFBP7 (11715501_s_at) / RFU REEP3 (11722064_at) / Fold change /veh REEP3 (11722064_at) / RFU IGLL1 (11728026_x_at) / Fold change /veh IGLL1 (11728026_x_at): dose or concentration left out as unconfirmed
Settings: ProbeSet 11741070_a_at; LIST B

SMILES: Nc1ccc(-c2cccs2)cc1NC(=O)c1ccc2c(c1)cc(C1CC1)n2CCN1CCOCC1 [ACY-1035]
- Fold change vs veh, ZNF146: 0.99
